US20250304623A1, “PEPTIDES FOR INTRACELLULAR DELIVERY” (UNIVERSIDADE DE SANTIAGO DE COMPOSTELA, priority 2022, published 2025)
*: point of attachment. NHNH2 = NN*

Experiments:
Assay type in all cases: cell-based
ARPE19 cells = assay: EGFP mRNA delivery, robotic library screening, ARPE19
Procedure: (§1) Cells were seeded in a 96 well plate the day before the experiment at a concentration of 50,000 cell/mL (100 μL/w) in DMEM+10% FBS+1% Gln-Abt. For robotic library screening, the delivery of EGFP-mRNA (from TriLink, fully substituted with 5-methoxyuridine, capped and polyadenylated; TriLink, CleanCap® EGFP mRNA (5moU), ref. L-7201) in six different cell lines was performed. Amphiphilic molecule stock solutions were prepared in DMSO as described above and diluted in DMEM to afford a range of concentrations. The solutions of EGFP-mRNA/amphiphilic molecule complexes were freshly prepared prior to the transfection experiments. 35 μL of the corresponding amphiphile were added to 10 μL of a solution of EGFP-mRNA at 10 ng/μL in DMEM. The mixture was shaken for 30 min at room temperature before the addition to the cells. The cell medium was aspirated, and cells were washed with PBS twice. Cells were covered with 39 μL of DMEM and 11 μL of the complex's solution were added to the cells and incubated for 4 h (final concentration of peptide=2.5, 5 and 10 μM; final concentration of EGFP-mRNA=25 ng/well). After the incubation, the medium was replaced by 100 μL of fresh DMEM supplemented with 10% FBS. The total EGFP fluorescence was quantified after 72 h in a well plate reader. Amphiphile transfection efficiency was compared and normalized to Lipofectamine® MessengerMax efficiency (value of 1 in Tables 1-5 and 7; double underlined numbers). All experiments were done in triplicate.
(§2) Tables 1-7: RLuc (pDNA) or EGFP (mRNA) expression levels were normalized to Lipofectamine reagents (value=1) and expressed as fold-times signal increase. In the case of siRNA, the siRNA treated cells fluorescence was compared with siMOCK control fluorescence, while Cas9-RNP mediated knockout was measured against the fluorescence of untreated cells. In both siRNA and Cas9-RNP, values are expressed as % fluorescence reduction. Amphiphile concentration was 5 μM in all cases. All experiments were performed in triplicate.
(§3) Tables 14-19 show the mean (triplicates) fluorescence intensity measured after the transfection of EGFP mRNA by different amphiphiles at different concentrations in a variety of cell lines. Background fluorescence values, accounted by untreated control cells, were subtracted for processing.

[1] = system: ARPE19 cells expressing EGFP; assay: EGFP-targeting siRNA delivery (GFP silencing vs siMOCK), ARPE19
Procedure: To generate an EGFP expressing HeLa cell line, HeLa cells were transfected with EGFP pDNA (pEGFP-C1, Clontech) and stable transfectants were selected with 400 μg/mL of G-418 (Millipore). Green clones were selected by epifluorescence microscopy and tested for EGFP expression stability through several passages. […] All other EGFP-expressing cell lines were obtained in a similar way from parent non-EGFP-expressing cell lines.
Cells expressing EGFP were seeded in a 96 well plate the day before the experiment at a concentration of 50,000 cell/mL (100 μL/w) in DMEM+10% FBS+1% Gln-Abt. For robotic library screening, the delivery of an EGFP-targeting siRNA (EGFP: enhanced green fluorescent protein, Ambion® Silencer® GFP Positive Control siRNA (siGFP) (AM4626)) in six different cell lines expressing EGFP was performed. […] The mixture was shaken for 30 min at room temperature (rt) before the addition to the cells. The cell medium was aspirated, and cells were washed twice with PBS. Finally, 50 μL of the solution of siRNA/amphiphile complexes were added to the cells and incubated for 4 h. After transfection, the medium was replaced by 100 μL of fresh DMEM supplemented with 10% FBS. The fluorescence knockdown was quantified after 72 h in a plate reader, by comparison with cells transfected with a non-targeting siRNA control (siMOCK, Silencer™ Negative Control No. 1 siRNA (siMOCK) (AM4611)). EGFP knockdown was compared with Lipofectamine® RNAiMAX silencing efficiency (30-60% depending on cell line, defined with a numeric value in the below tables). All experiments were done in triplicate.
as §2
Tables 20-25 show the mean (triplicates) percentage of GFP-silencing, accounted by fluorescence intensity decrease relative to a non-targeting siRNA (siMOCK) control, measured after the transfection of siRNA by different amphiphiles at different concentrations in a variety of cell lines. Background values, accounted by untreated control cells, were subtracted for processing.

A549 cells = assay: EGFP mRNA delivery, robotic library screening, A549
Procedure: as §1, §2, §3

HCT116 cells = assay: EGFP mRNA delivery, robotic library screening, HCT116
Procedure: as §1, §2, §3

Hek293 cells = assay: EGFP mRNA delivery, robotic library screening, Hek293
Procedure: as §1, §2, §3

Substance: Ac-RK*LRRLLRK*-NH2 (Ac-RK(NHNH2)LRRLLRK(NHNH2)-NH2; not fully specified; printed as Ac-RK*LRRLLRK*-NH2; also: K*2,K*9: native or modified lysine (ε-amide to a linker)) [Peptide 9.2]
- mean fluorescence intensity (EGFP mRNA) (ARPE19 cells; Myristoleyl, 2.5 μM): 1377
- mean fluorescence intensity (EGFP mRNA) (ARPE19 cells; Myristoleyl, 5 μM): 941
- percentage of GFP-silencing relative to siMOCK ([1]; Dodecanal, 5 μM): 13%
- percentage of GFP-silencing relative to siMOCK ([1]; Dodecanal, 10 μM): 34%
- percentage of GFP-silencing relative to siMOCK ([1]; Dodecanal, 15 μM): 30%
- percentage of GFP-silencing relative to siMOCK ([1]; Myristoleyl, 5 μM): 24%
- mean fluorescence intensity (EGFP mRNA) (A549 cells; Myristoleyl, 5 μM): 205
- mean fluorescence intensity (EGFP mRNA) (A549 cells; Myristoleyl, 10 μM): −79
- mean fluorescence intensity (EGFP mRNA) (HCT116 cells; Dodecanal, 5 μM): 438
- mean fluorescence intensity (EGFP mRNA) (HCT116 cells; Myristoleyl, 2.5 μM): 1498
- mean fluorescence intensity (EGFP mRNA) (HCT116 cells; Petroselinyl, 5 μM): 662

Substance: Ac-RRLK*RLLRRLK*RL-NH2 (Ac-RRLK(NHNH2)RLLRRLK(NHNH2)RL-NH2; not fully specified; printed as Ac-RRLK*RLLRRLK*RL-NH2; also: K*4,K*11: native or modified lysine (ε-amide to a linker)) [Peptide 13.2]
- percentage of GFP-silencing relative to siMOCK ([1]; Oleyl, 10 μM): 22%
- percentage of GFP-silencing relative to siMOCK ([1]; Oleyl, 15 μM): 1%
- mean fluorescence intensity (EGFP mRNA) (Hek293 cells; Dodecanal, 5 μM): 678
- mean fluorescence intensity (EGFP mRNA) (Hek293 cells; Dodecanal, 10 μM): 520
- mean fluorescence intensity (EGFP mRNA) (Hek293 cells; Oleyl, 2.5 μM): 955
- mean fluorescence intensity (EGFP mRNA) (Hek293 cells; Oleyl, 5 μM): 666
- mean fluorescence intensity (EGFP mRNA) (Hek293 cells; Oleyl, 10 μM): 791
- mean fluorescence intensity (EGFP mRNA) (A549 cells; Oleyl, 2.5 μM): 136
- mean fluorescence intensity (EGFP mRNA) (A549 cells; Oleyl, 5 μM): 160
- mean fluorescence intensity (EGFP mRNA) (A549 cells; Oleyl, 10 μM): 22

Substance: Ac-RRLK*RLLRRLK*RLK*RRL-NH2 (Ac-RRLK(NHNH2)RLLRRLK(NHNH2)RLK(NHNH2)RRL-NH2; not fully specified; printed as Ac-RRLK*RLLRRLK*RLK*RRL-NH2; also: K*4,K*11,K*14: native or modified lysine (ε-amide to a linker)) [Peptide 17.3]
- mean fluorescence intensity (EGFP mRNA) (ARPE19 cells; Dodecanal, 5 μM): 466
- mean fluorescence intensity (EGFP mRNA) (ARPE19 cells; Myristoleyl, 5 μM): 323
- mean fluorescence intensity (EGFP mRNA) (ARPE19 cells; Myristoleyl, 10 μM): 393
- mean fluorescence intensity (EGFP mRNA) (ARPE19 cells; Petroselinyl, 2.5 μM): 479
- mean fluorescence intensity (EGFP mRNA) (ARPE19 cells; Petroselinyl, 5 μM): 351
- mean fluorescence intensity (EGFP mRNA) (ARPE19 cells; Petroselinyl, 10 μM): 293
- percentage of GFP-silencing relative to siMOCK ([1]; Dodecanal, 5 μM): 29%
- percentage of GFP-silencing relative to siMOCK ([1]; Dodecanal, 10 μM): 14%
- percentage of GFP-silencing relative to siMOCK ([1]; Dodecanal, 15 μM): 22%
- percentage of GFP-silencing relative to siMOCK ([1]; Myristoleyl, 5 μM): 43%
- percentage of GFP-silencing relative to siMOCK ([1]; Myristoleyl, 15 μM): −5%
- percentage of GFP-silencing relative to siMOCK ([1]; Oleyl, 10 μM): 22%
- percentage of GFP-silencing relative to siMOCK ([1]; Palmitoleyl, 5 μM): 36%
- percentage of GFP-silencing relative to siMOCK ([1]; Palmitoleyl, 10 μM): 24%
- percentage of GFP-silencing relative to siMOCK ([1]; Palmitoleyl, 15 μM): −4%
- percentage of GFP-silencing relative to siMOCK ([1]; Petroselinyl, 5 μM): 36%
- percentage of GFP-silencing relative to siMOCK ([1]; Petroselinyl, 10 μM): 20%
- mean fluorescence intensity (EGFP mRNA) (A549 cells; Myristoleyl, 2.5 μM): 563
- mean fluorescence intensity (EGFP mRNA) (A549 cells; Myristoleyl, 5 μM): 309
- mean fluorescence intensity (EGFP mRNA) (A549 cells; Petroselinyl, 2.5 μM): 791
- mean fluorescence intensity (EGFP mRNA) (A549 cells; Petroselinyl, 5 μM): 440
- mean fluorescence intensity (EGFP mRNA) (A549 cells; Petroselinyl, 10 μM): 274
- mean fluorescence intensity (EGFP mRNA) (HCT116 cells; Dodecanal, 5 μM): 130
- mean fluorescence intensity (EGFP mRNA) (HCT116 cells; Dodecanal, 10 μM): 312
- mean fluorescence intensity (EGFP mRNA) (HCT116 cells; Myristoleyl, 2.5 μM): 570
- mean fluorescence intensity (EGFP mRNA) (HCT116 cells; Myristoleyl, 5 μM): 247
- mean fluorescence intensity (EGFP mRNA) (HCT116 cells; Petroselinyl, 2.5 μM): 373
- mean fluorescence intensity (EGFP mRNA) (HCT116 cells; Petroselinyl, 5 μM): 168
- mean fluorescence intensity (EGFP mRNA) (HCT116 cells; Petroselinyl, 10 μM): 66
